Results taken from patent US8048880B2, “Treatment of cardiovascular disease and dyslipidemia using secretory phospholipase A2 (SPLA2) inhibitors and SPLA2 inhibitor combination therapies” (Anthera Pharmaceuticals, Inc., priority 2007, dated 2011).

Legend:
ApoE−/− mice [1] = experiment: Angiotensin II-mediated atherosclerotic plaque formation and aneurysm in ApoE−/− mice (Example 2); format: in vivo
Description: A mouse model of accelerated atherosclerosis was utilized to determine the effect of A-002 administration on atherosclerosis and aneurysm formation. ApoE^−/− mice acclimated to the same high fat diet utilized in Example 1 were administered angiotensin II with water, angiotensin with 5% acacia, or saline infusion and water twice daily for four weeks. […] At the end of the test period, plaque coverage was assessed by three independent reviewers, and their assessments were averaged to determine plaque coverage.

ApoE−/− mice [2] = experiment: Plasma total cholesterol levels in ApoE−/− mice on high fat diet (Example 1); format: in vivo; conditions: at 16 weeks
Description: (§1) Male ApoE^−/− mice were fed a high fat diet (21% fat, 0.15% cholesterol, 19.5% casein) ad libitum for two weeks in order to acclimate to the diet. Plasma cholesterol levels and body weight were measured in order to obtain baseline levels, and mice were randomized into three groups of 20 mice based on these measurements. After the acclimation period, mice remained on the high fat diet and were administered A-002 (30 mg/kg or 90 mg/kg) or vehicle only (5% acacia) twice a day for 16 weeks by oral gavage.
(§2) Plasma cholesterol levels and body weight were measured at 4, 8, 12, and 16 weeks after the start of A-002 administration. Comparisons of measurements between test and control mice at each time period were performed using a two-way analysis of variance test (ANOVA) for repeated measures, followed by post-hoc Bonferroni test for significance.

ApoE−/− mice [3] = experiment: Atherosclerotic plaque coverage of the aorta in ApoE−/− mice (Example 1); format: in vivo; conditions: at 16 weeks
Description: as §1
At the end of the 16th week, mice were sacrificed and plasma samples, heart tissue, and aortas from the heart to approximately 3 mm distal to the iliac bifurcation were collected. Aortas were placed on microscope slides and stained with Oil Red O for scanning and image analysis of atherosclerotic lesion size. Vessel images were captured using a Microtek Scanmaker 9600XL scanner (Microtek, Carson, Calif.) and Photoshop 6.0 software (Adobe Systems Inc., San Jose, Calif.). Atherosclerotic plaque coverage was quantified for the entire length of the vessel including the arch using Image-Pro Plus software. Vessels were also analyzed for plaque coverage in the descending abdominal aorta, starting in the region of the first intercostal branches to the iliac bifurcation (not including the arch). Plaque content was expressed as a percent of the aortic surface. […]

CRP = experiment: Serum CRP concentration in humans, A-002 once a day (Example 6); format: in vivo, human; conditions: week 8
Description: 135 human subjects over the age of 18 with CVD, specifically stable CAD, were randomized to receive either placebo or one of two dosages (250 mg or 500 mg) of A-002 via once a day oral administration over an eight week time period. 89 of the subjects received A-002, while 46 of the subjects received placebo. Subjects that were receiving statins or other compounds used in the treatment of CVD at the outset of the trial continued to receive those therapeutics throughout the trial. 121 of the 135 subjects were on statins during the trial. There was little variation between dosage groups with respect to age, height, weight, or BMI.
Levels of various lipids and inflammatory markers were measured at the outset of the trial and at weeks two, four, and/or eight weeks after the start of A-002 administration. In addition, plasma A-002 levels were measured at various intervals. Lipids that were measured included LDL, small LDL particle, oxidized LDL, non-HDL cholesterol, total cholesterol, ApoB, and triglycerides. In addition, levels of the inflammatory marker CRP were measured. Lipid and inflammatory marker levels at each timepoint were compared to the baseline measurements to determine the effect of A-002 administration. For data sets with a normal distribution, mean levels of lipids or inflammatory markers were analyzed. For data sets with non-normal distribution, median levels were analyzed. LDL particle size was also assessed.

[4] = Body weight of ApoE−/− mice on high fat diet during 16 weeks of A-002 (Example 1); format: in vivo; conditions: oral gavage
Description: as §1, §2

[5] = statin subpopulation with baseline serum LDL greater than 70 mg/dl

## CCc1c(C(=O)C(N)=O)c2c(OCC(=O)OC)cccc2n1Cc1ccccc1 [A-002, [[3-(2-Amino-1,2-dioxoethyl)-2-ethyl-1-(phenylmethyl)-1H-indol-4-yl]oxy]acetic acid methyl ester]
ApoE−/− mice [1]; angiotensin II + 5% acacia + 30 mg/kg A-002 twice daily, four weeks
  Aneurysm rate (%): 0% (0/16)
ApoE−/− mice [1]; angiotensin II/acacia mice, 30 mg/kg A-002 twice daily, four weeks (FIG. 4)
  plaque content: significantly decreased
ApoE−/− mice [2]; 30 mg/kg A-002 twice a day
  change from baseline in total cholesterol: −10%
ApoE−/− mice [2]; 90 mg/kg A-002 twice a day
  change from baseline in total cholesterol: −12%
ApoE−/− mice [3]; 30 mg/kg A-002 twice a day
  plaque coverage in aortic tissue: 6.3%
ApoE−/− mice [3]; 90 mg/kg A-002 twice a day
  plaque coverage in aortic tissue: 6.8%
CRP; ITT population
  % change vs. baseline (median [CRP]): +5.4%
CRP; [5]
  % change vs. baseline (median [CRP]): +9.1%
  Change in median [CRP] vs. baseline: +0.10 mg/L
CRP; statin subpopulation
  % change vs. baseline (median [CRP]): +8.7%
  Change in median [CRP] vs. baseline: +0.10 mg/L
[4]; 30 mg/kg A-002 twice a day
  Body weight increase over the 16 week test period: ~150%
[4]; 90 mg/kg A-002 twice a day
  Body weight increase over the 16 week test period: ~141%
